Earlier results in patent US20060286164A1 (priority 2004, published 2006).
Entries after “also recorded” stand apart in the source; their conditions may differ. Where two headings read alike, the source gives them in different places.

Assays:
[1] = not given; remark: listed apart in the source
[2] = system: Guinea Pig; details: in vivo, po
[3] = system: mouse; details: in vivo, po
[4] = system: rat
[5] = set by WHO from metabolic and toxicological data

## CC(C)Cc1ccc(C(C)C(=O)O)cc1 (racemic) [Ibuprofen, 2-(4-Isobutylphenyl)Propionic acid]
other
  solubility in water: practically insoluble; also recorded: not soluble

## CC(C)Cc1ccc([C@H](C)C(=O)O)cc1 [(S)-(+)-Ibuprofen]
other
  solubility in water: not soluble

## CCO [Ethanol, Ethyl alcohol]
[1]; chloroform, ether, glycerin and water
  miscibility: miscible
[2]
  LD50: 5560 mg/kg
[3]
  LD50: 7500 mg/kg

## CCCCCCCC/C=C\CCCCCCCC(=O)O [Oleic acid, (Z)-9-Octadecenoic acid]
[4]; IV
  LD50: 2.4 mg/kg

## CCOCCOCCO [Transcutol, Diethylene glycol monoethyl ether]
other
  solubility in water: soluble
[1]; ethanol, hexylene glycol and propylene glycol
  solubility: soluble
[1]; vegetable oil
  solubility: partially soluble
[4]; in vivo, po
  LD50: 7.5 mg/kg

## CC(O)CO (stereo not shown) [propylene glycol, Propylene glycol]
[5]
  acceptable daily intake: up to 25 mg/kg body weight

## Vitamin E
other
  solubility in water: practically insoluble
[1]; acetone, ethanol, ether and vegetable oil
  solubility: freely soluble
